{"source": "patent US20240207258A1", "about": "“HETEROCYCLIC PDK1 INHIBITORS FOR USE TO TREAT CANCER” (Viracta Therapeutics, Inc., priority 2015, published 2024)", "key": {"P-PDK1": {"tested_on": "P-PDK1", "experiment": "Pathway modulation in MV4-11 tumor xenografts, pPDK1", "format": "in vivo, mice", "conditions": "MV4-11 tumors, 50 mg/kg oral, 8 hrs", "from_the_text": "MV4-11 cells propagated in vitro were implanted subcutaneous into the right flank of 9-week old female NCr nu/nu mice. On the day of implant, MV4-11 cells were harvested during log phase growth and resuspended in phosphate buffered saline (PBS) containing 50% Matrigel™ (BD Biosciences) at a concentration of 1×10^8 cells/mL. […] Two weeks after implantation, animals were assigned to individual groups of 3 animals with and average tumor volume of approximately 200 mm^3. […] Eight hours post-dose, full blood volume was collected by cardiac puncture under isoflurane anesthesia and tumors were excised and snapfrozen in liquid nitrogen and stored at −80° C. until further analysis. Tumors were pulverized in liquid nitrogen using a Biopulverizer and split into two sample tubes: one for Western blot analysis and one for analysis of compound levels by LC-MS/MS. […] For MS analysis, tumor samples were homogenized with a Virsonic 100 ultrasonic homogenizer. Each sample was first weighed, and then an appropriate volume of 20:80 methanol:water was added to make a 9 mL/gram sample. Samples were then homogenized on ice, and stored frozen until analysis. Standards were prepared in BALB/c mouse plasma or blank homogenized tumor tissue. Standards and samples were analyzed on a PE Sciex API4000 instrument and compound concentration was quantified and back-calculated to ng compound per g tumor tissue and converted to M concentration assuming 1 g tumor tissue equals 1 mL volume."}, "AKT phosphorylation": {"tested_on": "AKT phosphorylation", "experiment": "Pathway modulation in MV4-11 tumor xenografts, pAKT", "format": "in vivo, mice", "conditions": "MV4-11 tumors, 50 mg/kg oral, 8 hrs", "description": "(§1) MV4-11 cells propagated in vitro were implanted subcutaneous into the right flank of 9-week old female NCr nu/nu mice. On the day of implant, MV4-11 cells were harvested during log phase growth and resuspended in phosphate buffered saline (PBS) containing 50% Matrigel™ (BD Biosciences) at a concentration of 1×10^8 cells/mL. Xenografts were initiated by subcutaneously implanting 1×10^7 MV-4-11 cells (0.1 mL suspension) into the right flank of each test animal and tumors were monitored as their volumes approached the target range of 175 to 225 mm^3. Two weeks after implantation, animals were assigned to individual groups of 3 animals with and average tumor volume of approximately 200 mm^3. […] Eight hours post-dose, full blood volume was collected by cardiac puncture under isoflurane anesthesia and tumors were excised and snapfrozen in liquid nitrogen and stored at −80° C. until further analysis. Tumors were pulverized in liquid nitrogen using a Biopulverizer and split into two sample tubes: one for Western blot analysis and one for analysis of compound levels by LC-MS/MS. Western blot analysis was performed as described above. […] Standards and samples were analyzed on a PE Sciex API4000 instrument and compound concentration was quantified and back-calculated to ng compound per g tumor tissue and converted to M concentration assuming 1 g tumor tissue equals 1 mL volume."}, "[1]": {"experiment": "Compound concentration in MV4-11 tumors by LC-MS/MS", "format": "in vivo, mice", "conditions": "50 mg/kg oral", "description": "as §1"}, "[2]": {"tested_on": "hematologic tumor cell lines", "experiment": "MTS cell proliferation assay, panel of hematologic cancer cell lines", "format": "cell-based", "conditions": "range over 16 cell lines, FIG. 3; read-out: potency in the cell proliferation assay (EC50)", "description": "Cell proliferation was measured using the CellTiter 96 Aqueous Non-Radioactive Cell Proliferation Assay (Promega). The CellTiter 96® AQueous Assay is composed of solutions of a tetrazolium compound [3-(4,5-dimethylthiazol-2-yl)-5-(3-carboxymethoxyphenyl)-2-(4-sulfophenyl)-2H-tetrazolium, inner salt; MTS] and an electron coupling reagent (phenazine methosulfate) PMS. MTS is bioreduced by cells into a formazan product that is soluble in tissue culture medium. The absorbance of the formazan product at 490 nm can be measured directly from assay plates without additional processing. The quantity of formazan product as measured by the amount of 490 nm absorbance is directly proportional to the number of living cells in culture. Cells were seeded into 96-well or 384-well clear plates in a volume of 200 μL (96-well) or 50 μL (384-well) at optimized densities ranging from 1,000 to 40,000 cells per well for 96-well plates or 1,200 to 25,000 cells per well for 384-well plates depending on cell-line. After 4-6 hr recovery, serially diluted compounds in DMSO were added to the cells using (0.1% v/v final DMSO concentration). Cells were then grown at 37° C. in a humidified incubator with 5% CO2 for 72 hr. A 20:1 [3-(4,5-dimethylthiazol-2-yl)-5-(3-carboxymethoxyphenyl)-2-(4-sulfophenyl)-2H-tetrazolium](MTS):phenazine methosulfate (PMS) solution in DPBS was made immediately before use, added to each well, and cells were incubated for 1.5 hr at 37° C. The absorbance at 490 nm was then measured using a platereader. Absorbance values were normalized as percent of control (cells incubated in the presence of 0.1% v/v DMSO). Sigmoidal dose-response curves were plotted using log(inhibitor) vs. response—Variable slope (four parameters) model with a top value constrained to 100% (GraphPad Prism version 6.00 for Windows, GraphPad Software, La Jolla California USA). […] Curves for compounds that reached a plateau were matched exactly to the measurement points. […] To determine potential of compounds of the invention to affect viability of hematological cancers, cell lines representing various tumor types were selected and tested. Human cell lines tested were: MOLM-13 (acute myeloid leukemia (AML)), MV4-11 (AML), U-2932 (ABC-diffuse large B cell lymphoma), U-937 (histiocytic lymphoma), U-266 (multiple myeloma), RPMI-8226 (multiple myeloma), CMK (megakaryoblastic cell line), SU-DHL-4 (GCB-diffuse large B cell lymphoma), KG1 (AML), Mec-1 (chronic B-cell leukemia), MOLM-16 (AML), Jeko (B-cell lymphoma), WSU-DLCL2 (B-cell lymphoma), JJN3 (plasma cell leukemia), SU-DHL-6 (GCB-diffuse large B cell lymphoma), and Z-138 (mantle cell lymphoma). In addition, two murine cell lines were tested: A20 […]."}}}
{"smiles": "CS(=O)(=O)N1CCN(Cc2cc3nc(-c4cccc5[nH]ncc45)nc(N4CCOCC4)c3s2)CC1", "note": "[GDC-0941, pictilisib]", "values": [{"measurement": "inhibition of P-PDK1", "setting": "P-PDK1", "value": 25, "unit": "%"}, {"measurement": "inhibition of PDK1 in tumors", "setting": "P-PDK1", "value": 45, "unit": "%"}, {"measurement": "inhibition of P-AKT in tumors", "setting": "AKT phosphorylation", "value": "no inhibition"}, {"measurement": "tumor exposure", "setting": "[1]", "value": "0.4 to 1.4", "unit": "mM"}, {"measurement": "EC50", "setting": "[2]", "value": "0.05 to 6.1", "unit": "µM"}]}
